Read-outs that look alike come from different tables or passages of the source.
Tests used:
EA.hy926 cells = assay: MTT cytotoxicity assay, EA.hy926; type: cell-based, human
Text: The EA.hy926 cells (the human umbilical vein, somatic cell hybrid) (American Type Culture Collection) are immortalized human umbilical vein endothelial cells. They have morphological, phenotypic and functional characteristics of human endothelial cells, without the limited lifespan. This cell line has been considered as a good model for anticancer drug screening and was chosen to evaluate the endothelial cytotoxicity of novel compounds.
(§1) The MTT assay was used to evaluate cell metabolic activity. The test principle is based on the determination of cell viability by measuring the metabolic activity in mitochondria. Enzymatically active mitochondria reduce the water-soluble MTT (3-(4,5-dimethylthiazol-2-yl)-2,5 diphenyltetrazoliumbromide) to blue–violet insoluble formazan. The number of viability cells is proportional to the colour intensity determined by photometric measurements (an analytical wavelength 570 nm) after dissolving the formazan in Dimethylsulfoxide (DMSO) (Serva) and Sorensen’s glycine buffer. MTT (Sigma Aldrich) was dissolved in Phosphate Buffered Saline (PBS) (PAN-Biotech) at a concentration of 0.5 mg/mL. Sorensen’s glycine buffer is made of 0.1 M glycine and 0.1 M NaCl, at pH 10.5. Studied compounds were dissolved in DMSO in order to receive stock solutions.
(§2) For the assay, cells were seeded into 96-well plates at density 10^4 cells per well and cultured for 24 h at 37 °C and 5% CO2. Then medium was removed, and cells were exposed to the 100 µL of the compound solutions over a range of concentrations (final DMSO concentration was below 0.2%) or nothing but culture medium (blank control). Pure DMSO was used as a positive control. After 24 h of incubation with the compound solutions, medium was removed and 50 µL of the MTT solution was added to each well and incubated in the dark for additional 2 h at 37 °C. Then the MTT solution was carefully removed and 100 µL of DMSO was added. Plates were incubated for 10 min at room temperature. Finally, 5 µL of Sorensen Buffer was added to each well. Plate was swayed, and the absorbance was measured by using microplate reader (Synergy H1, BioTek, Winooski, VT, USA) at a wavelength of 570 nm. The cell viability was expressed as a percentage of the control values (blank). The experiments were done in triplicate.

HT-29 cells [1] = assay: MTT cytotoxicity assay, HT-29; type: cell-based; conditions: Homo sapiens, read-out: IC50 µM ± SD against HT-29
Text: as §1, §2

[2] = molecular target: T1, hyaluronidase from bovine testes Type I-S (Bos taurus, UniProt Q2YDK3); assay: Hyaluronidase inhibition assay (turbidimetric); type: biochemical; conditions: read-out: HYAL IC50 ± SD
T1 construct: purchased Sigma Aldrich; host or cells: bovine testes (tissue-derived preparation)
T1 sequence (Q2YDK3 36-553): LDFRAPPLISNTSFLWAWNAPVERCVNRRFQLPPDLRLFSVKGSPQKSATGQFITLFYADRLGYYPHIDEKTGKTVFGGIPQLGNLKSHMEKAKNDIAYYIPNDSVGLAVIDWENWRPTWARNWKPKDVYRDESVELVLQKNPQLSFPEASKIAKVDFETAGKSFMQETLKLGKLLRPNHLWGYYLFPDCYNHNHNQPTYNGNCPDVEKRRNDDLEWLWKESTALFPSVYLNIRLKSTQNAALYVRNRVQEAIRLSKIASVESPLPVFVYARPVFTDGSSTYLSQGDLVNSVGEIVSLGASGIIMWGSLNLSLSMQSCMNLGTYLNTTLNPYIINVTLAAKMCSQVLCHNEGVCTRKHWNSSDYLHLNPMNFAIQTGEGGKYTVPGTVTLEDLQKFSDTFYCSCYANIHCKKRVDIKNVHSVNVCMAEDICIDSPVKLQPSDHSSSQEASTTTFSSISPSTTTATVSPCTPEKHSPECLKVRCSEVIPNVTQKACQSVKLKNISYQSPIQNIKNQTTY

A549 cells = assay: MTT cytotoxicity assay, A549; type: cell-based, human
Text: A549 cell line (lung carcinoma from human) (European Collection of Cell Culture) and HT-29 cell line (colorectal adenocarcinoma from human) (American Type Culture Collection) were chosen to evaluate the cytotoxicity of novel compounds.
as §1, §2

HT-29 cells [3] = assay: Reactive oxygen species assay (DCFH-DA), HT-29; type: cell-based, human; conditions: compound at IC50 24 h plus H2O2, H2O2 only 1.88-fold
Description: After incubation, compounds were added into the wells and further incubated for next 24 h. H2O2 (1 mM) was added at 22nd h of incubation with compounds. H2O2 was used as a positive control. 30 min before the analysis, DCFH-DA (20 µM) was added to the wells. After incubation, cells were harvested and washed in PBS. Then, cells were centrifuged at 1500 rpm for 10 min. Medium was removed and cells were suspended in PBS. Analysis was performed on BD Accuri C6 Flow Cytometry (Becton–Dickinson).

γ-H2AX = assay: Western blot of γ-H2AX, HT-29; type: cell-based, human; conditions: HT-29, 24 h, IC50 and 1/2IC50
Description: (§3) Then, cells were treated with chosen compounds. After 24 h of incubation, monolayer and supernatant were harvested and washed in cold PBS. Cells were centrifuged—monolayer at 1200 rpm for 10 min, supernatant 3500 rpm for 10 min. Pellets were dissolved in RIPA Lysis and Extraction buffer (Bio-Rad) containing Phosphatase Inhibitor Cocktail 3 (Sigma Aldrich) and Protease Inhibitor Cocktail (Sigma Aldrich). Samples were incubated in ice for 30 min and mixed every 10 min. Then, samples were centrifuged at 12,000 rpm for 25 min. Protein concentration in supernatants was measured in triplicate using a Protein Assay (Bio-Rad). Proteins were separated by SDS–polyacrylamide gel electrophoresis. Separating and stacking gels were made of different ratios of water, Tris–HCl pH 6.8 and pH 8.8, 10% SDS (Sigma Aldrich), Acrylamide/bis-acrylamide (Sigma Aldrich), 10% APS (Sigma Aldrich), TEMED (Sigma Aldrich). 7.5% gels were prepared for analysis PARP-1, whereas 12% gels prepared for γ-H2AX. After separation on SDS–polyacrylamide gels, proteins were electroblotted on nitrocellulose membrane in Transfer Buffer (Glycine, Tris, Methanol). Membranes were washed in TBS/0.1% or 0.05% Tween20 solution and blocked in Tris-buffered saline with 5% of non-fated dried milk for 1 h. Membranes were then incubated overnight with primary antibodies—anti-PARP-1 (Cell Signaling Technology), anti-γ-H2A.X (Cell Signaling Technology), anti-β-actin (Cell Signaling Technology) in cold room (6 °C). After incubation, membranes well washed with TBS/Tween solution and blocked with and horseradish peroxidase-conjugated secondary antibodies (Bio-Rad) for 1 h in cold room. Protein bands were visualized using ECL™ Prime Western Blotting Detection Reagents (Sigma Aldrich) Healthcare and Carestream Kodak autoradiography GBX fixer/replenisher (Sigma Aldrich) with Developer and Replenisher (Carestream) in the dark room. Results were obtained on Autoradiography Film (Santa Cruz Biotechnology). Densitometric analysis was performed by using a software program (ImageJ). […]

SH-SY5Y cells [4] = assay: Cytoprotection against rotenone/oligomycin A, pre-incubation, MTT; type: cell-based, human; conditions: for Cytoprotection: pre-incubation with rotenone/oligomycin A;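 on Cytoprotection: Toxic mixture Rotenone 30 µM plus Oligomycin A 10 µM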
Description: Rotenone with oligomycin A (R/O) were taken to induce mitochondrial ROS by blocking of complexes I and V of the mitochondrial electron transport chain. It causes free radical production and blockade of ATP synthesis. In the pre-incubation experiment, it could be assessed whether the compounds have cytoprotective properties due to the activation of endogenous antioxidant pathways. In the co-incubation could be shown whether compounds are free-radical scavengers. MTT assay was a test of choice, because in this assay mitochondrial activity is measured. […] It can be determined whether novel compound would protect cells from both apoptotic and necrotic death resulting from the increase of intracellular ROS. In both experiments, trolox was used as a reference compound. […] After this time, toxic mixture was added, and cells were maintained for an additional 24 h in the presence of the compounds.

PARP-1 = assay: Western blot of PARP-1 cleavage, HT-29; type: cell-based, human; conditions: HT-29, 24 h, IC50 and 1/2IC50
Description: as §3

supercoiled pUC19 DNA = conditions: 100 µM; human Topoisomerase I
SH-SY5Y cells [5] = assay: Cytoprotection against H2O2 (100 µM), MTT; conditions: for Cells viability (%) ± SD after 24 h of incubation with compound and H2O2: H2O2 only 82.74%; for viability at 1 µM: Homo sapiens, 24 h, read-out: Cells viability (%) ± SD after 24 h of incubation with compound and H2O2
SH-SY5Y cells [6] = assay: Cytoprotection against rotenone/oligomycin A, co-incubation, MTT; type: cell-based, human; conditions: co-incubation with rotenone/oligomycin A
Description: In the co-incubation assay, compounds and mixture of R/O were incubated together for 24 h. […] It turned out that none of the compounds (apart from 1i at the concentration of 0.001 µM and cytoprotection of 2.99%) had cytoprotective properties in the whole range of concentrations (Fig. 17). Compounds were not able to capture free radicals; therefore they cannot be classified as free-radical scavengers.

[7] = Homo sapiens, A549, MTT, 24 h incubation, read-out: IC50 µM ± SD against A549

O=c1[nH]cc(F)c(=O)[nH]1 [5-Fluorouracil, reference compound]
IC50 (EA.hy926 cells; Homo sapiens, EA.hy 926, MTT, 24 h incubation, read-out: IC50 µM ± SD against EA.hy926): > 1800 µM | IC50 (HT-29 cells [1]; HT-29, MTT, 24 h incubation): 1630 ± 49.3 µM

O=C(NCCNc1c2c(nc3ccccc13)CCCC2)c1ccccc1I [Compound 1a]
IC50 [2]: 234 ± 7.9 µM | IC50 (HT-29 cells [1]; HT-29, MTT, 24 h incubation): 17.3 ± 1.22 µM | IC50 (A549 cells; [7]): 36 ± 1.74 µM

O=C(NCCNc1c2c(nc3ccccc13)CCCC2)c1cccc(I)c1 [Compound 1d]
IC50 [2]: 300 ± 6.3 µM | IC50 (HT-29 cells [1]; HT-29, MTT, 24 h incubation): 7.62 ± 0.19 µM | IC50 (A549 cells; [7]): 41.2 ± 1.27 µM

O=C(NCCCCNc1c2c(nc3ccccc13)CCCC2)c1cccc(I)c1 [Compound 1f]
Increase in ROS level (DCF fluorescence) in comparison with non-treated control (HT-29 cells [3]): 1.87 fold | IC50 (EA.hy926 cells; Homo sapiens, EA.hy 926, 24 h, read-out: IC50 µM ± SD against EA.hy926, MTT, 24 h incubation): 11.7 µM | IC50 (EA.hy926 cells; read-out: IC50 µM ± SD against EA.hy926, MTT, 24 h incubation): 12.4 ± 1.31 µM | γ-H2AX protein level / DNA damage (in words) (γ-H2AX): strongest H2AX phosphorylation | Cytoprotection (SH-SY5Y cells [4]; 0.001 µM): 57.16% | Cytoprotection (SH-SY5Y cells [4]; 0.01 µM): 35.65% | Cytoprotection (SH-SY5Y cells [4]; 0.1 µM): 35.21% | Cytoprotection (SH-SY5Y cells [4]; 1 µM): 30.81% | Cytoprotective properties in the pre-incubation assay (in words) (SH-SY5Y cells [4]; rotenone/oligomycin A, range of concentration 1–0.001 µM): showed their action against oxidative stress in the whole range of concentrations | IC50 (HT-29 cells [1]; HT-29, 24 h): 8.52 ± 0.1 µM | IC50 (A549 cells; Homo sapiens, A549, 24 h, read-out: IC50 µM ± SD against A549, MTT, 24 h incubation): 23.5 µM | IC50 (A549 cells; read-out: IC50 µM ± SD against A549, MTT, 24 h incubation): 26.4 ± 2.45 µM | Cleaved PARP-1 (89 kDa) level (in words) (PARP-1): lower apoptosis at IC50 concentrations | Intercalation: supercoiled pUC19 DNA band (in words) (supercoiled pUC19 DNA): bands at the same level as EB | Cells viability (%) ± SD after 24 h of incubation with compound and H2O2 (SH-SY5Y cells [5]; H2O2 100 µM, concentration: 1b 16.26, 1c 6.79, 1e 11.75, 1f 4.26, 1i 5.90 µM): 79.45 ± 9.87% | Cells viability (%) ± SD after 24 h of incubation with compound and H2O2 (SH-SY5Y cells [5]; H2O2 100 µM, concentration: 1b 65.04, 1c 27.16, 1e 46.98, 1f 17.04, 1i 29.74 µM): 23.85 ± 2.08 % | viability at 1 µM (SH-SY5Y cells [5]): 94.3 ± 7.26%

O=C(NCCNc1c2c(nc3ccccc13)CCCC2)c1ccc(I)cc1 [Compound 1g]
IC50 [2]: 191 ± 10.8 µM | IC50 (HT-29 cells [1]; HT-29, MTT, 24 h incubation): 8.16 ± 0.44 µM | IC50 (A549 cells; [7]): 20.8 ± 1.58 µM

O=C(NCCCNc1c2c(nc3ccccc13)CCCC2)c1ccc(I)cc1 [Compound 1h]
IC50 [2]: 201 ± 8.36 µM | IC50 (HT-29 cells [1]; HT-29, MTT, 24 h incubation): 9.4 ± 1.65 µM | IC50 (A549 cells; [7]): 21.4 ± 1.54 µM

Cc1c(C)c2c(c(C)c1O)CCC(C)(C(=O)O)O2 (centres unmarked) [Trolox, 6-hydroxy-2,5,7,8-tetramethylchroman-2-carboxylic acid, reference compound]
Cytoprotection (SH-SY5Y cells [4]; 0.001 µM): 0.98% | Cytoprotection (SH-SY5Y cells [4]; 1 µM): 0.53% | Cytoprotection (SH-SY5Y cells [6]; 0.001 µM): 9.08% | Cytoprotection (SH-SY5Y cells [6]; 0.01 µM): 8.18% | Cytoprotection (SH-SY5Y cells [6]; 0.1 µM): 4.02% | Cytoprotection (SH-SY5Y cells [6]; 1 µM): 6.12% | Cytoprotection against H2O2 (SH-SY5Y cells [5]; H2O2 100 µM, 1 µM): 96.38% | viability at 1 µM (SH-SY5Y cells [5]): 99.4 ± 9.81%

COc1cc(NS(C)(=O)=O)ccc1Nc1c2ccccc2nc2ccccc12 [amsacrine, reference compound]
Intercalation: supercoiled pUC19 DNA band (in words) (supercoiled pUC19 DNA): stronger intercalator than EB

Heparin [reference compound]
IC50 [2]: 56.4 ± 0.78 µM
